Data from publication PMC10410440, “Preclinical PK investigation of a novel IDO1/TDO dual inhibitor—SHR9146 in mouse plasma and tissues by LC-MS/MS” (Frontiers in Oncology, 2023).
“Also recorded” adds a separate entry of the source.

Legend:
[1] = tested on: colon cancer (MC38) cells; set-up: method as in earlier work; settings: SHR9146 combined with the PD-1 antibody vs single PD-1 antibody or SHR9146, and vs PD-1 antibody combined with INCB024360 or NLG0919100; cited from earlier work
advanced solid tumors = tested on: advanced solid tumors; set-up: method as in doi:10.1200/JCO.2021.39.15_suppl.3101; settings: SHR9146 plus camrelizumab in combination with/without apatinib; cited from earlier work
[2] = Stability of SHR9146 in mouse plasma, whole blood and post-preparative samples; type: in vitro ADME
Method: The plasma samples were examined under different conditions, including at room temperature for 6 h, three freeze–thaw cycles, and at −20°C and −70°C for 50 days. Post-preparative plasma samples were studied after being placed at room temperature for 24 h. […] Samples were considered to be stable if the deviations between measured concentration and the spiked values were within ±15%.

[3] = mouse plasma, after three freeze–thaw cycles, QC spiked 0.15 μg/mL, n=3
[4] = mouse plasma, after three freeze–thaw cycles, QC spiked 40 μg/mL, n=3
[5] = mouse plasma, at -70 °C for 50 days, QC spiked 0.15 μg/mL, n=3
[6] = mouse plasma, at -70 °C for 50 days, QC spiked 40 μg/mL, n=3
[7] = mouse plasma, at room temperature for 6 h, QC spiked 0.15 μg/mL, n=3
[8] = mouse plasma, at room temperature for 6 h, QC spiked 40 μg/mL, n=3
[9] = mouse plasma, at −20 °C for 50 days, QC spiked 0.15 μg/mL, n=3
[10] = mouse plasma, at −20 °C for 50 days, QC spiked 40 μg/mL, n=3
[11] = mouse whole blood samples at room temperature for 2 h, QC spiked 0.15 μg/mL, n=3
[12] = mouse whole blood samples at room temperature for 2 h, QC spiked 40 μg/mL, n=3
[13] = post-preparation plasma samples at room temperature for 24 h, QC spiked 0.15 μg/mL, n=3
[14] = post-preparation plasma samples at room temperature for 24 h, QC spiked 40 μg/mL, n=3

- RE ([2]; mouse plasma samples at room temperature for 6 h, QC levels not separated): −11.1%
- Measured value [2, 3]: 0.151 ± 0.002 µg/mL
- RE [2, 3]: 1.0%
- Measured value [2, 4]: 40.2 ± 0.33 µg/mL
- RE [2, 4]: 0.6%
- Measured value [2, 5]: 0.151 ± 0.004 µg/mL
- RE [2, 5]: 0.5%
- Measured value [2, 6]: 39.5 ± 0.26 µg/mL
- RE [2, 6]: −1.2%
- Measured value [2, 7]: 0.133 ± 0.002 µg/mL
- RE [2, 7]: −11.1%
- Measured value [2, 8]: 35.6 ± 0.17 µg/mL
- RE [2, 8]: −11.1%
- Measured value [2, 9]: 0.148 ± 0.004 µg/mL
- RE [2, 9]: −1.6%
- Measured value [2, 10]: 39.5 ± 0.11 µg/mL
- RE [2, 10]: −1.2%
- Measured value [2, 11]: 0.145 ± 0.002 µg/mL
- RE [2, 11]: −0.5%
- Measured value [2, 12]: 39.4 ± 0.22 µg/mL
- RE [2, 12]: −0.1%
- Measured value [2, 13]: 0.151 ± 0.003 µg/mL
- RE [2, 13]: 0.8%
- Measured value [2, 14]: 40.3 ± 0.09 µg/mL
- RE [2, 14]: 0.8%
Structure (SMILES): OCCn1cc(-c2ccc(N3CCC([C@H]4c5c(F)cccc5-c5cncn54)CC3)cc2)cn1 [SHR9146]
- inhibitory effect on colon cancer (MC38) cells [1]: significantly better inhibitory effect
- antitumor activity and safety in patients (advanced solid tumors): promising antitumor activity with acceptable safety
- stability in bio-samples ([2]; various storage conditions, stable if deviation within ±15%): stable in all the tested bio-samples; also recorded: stable under various storage conditions
